Data from patent US20240374535A1, “COMPOSITIONS AND METHODS FOR TREATING BIOFILM DISORDERS AND INFECTIONS” (AHV International B.V., priority 2021, published 2024).

Columns and labels:
[1] = test system: Staphylococcus epidermis ATCC 35984 biofilm; assay: MBEC assay (biofilm eradication, CFU log reduction); type: cell-based, S. epidermidis; conditions: 48 h grown biofilm, 20 h treatment, CFU log reduction vs untreated
In short: (§1)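 Biofilms were grown 48 h static at 37 °C in TSB from inocula at OD600 0.2, then treated 20 h at 37 °C with 1, 0.5, 0.25 or 0.125 mM compound in saline (Tween 80 and DMSO each 0.63–0.08%), four replicates per condition. Resuspended biofilm was serially diluted and plated on TSA for 24 h; log CFU reduction versus untreated, with ≥1 counted as significant, in two independent experiments.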

[2] = test system: Pseudomonas aeruginosa ATCC 27853 biofilm; assay: as above; type: cell-based, P. aeruginosa; conditions: 48 h grown biofilm, 20 h treatment, CFU log reduction vs untreated
In short: as §1

[3] = test system: Staphylococcus epidermis ATCC 35984 biofilm; assay: MBIC assay (biofilm inhibition, crystal violet); type: cell-based, S. epidermidis; conditions: 48 h incubation, absorbance 540 nm
Protocol: The exact weighed amount was noted and the volume of solvent to reach a 80 mM dilution calculated. Half of the volume was added first, by adding Tween 80. In a second step, the other half of the volume DMSO was added and the closed tube inverted 5-10 times and then vortexed very thoroughly for at least 30 seconds. If after this procedure unsolved material was still visible, the tube was placed in a shaker at 37° C. at 150 rpm for at least 30 minutes. […] For the MBEC assay (method 1.3) the solution needs to be diluted to a final concentration of 2 mM in 0.9% saline solution and then further diluted to 1 mM, 0.5 mM, 0.25 mM and 0.125 mM in saline. Those dilutions were added as treatment to the 96 well plates with the grown biofilm (see method 3).
Frozen aliquots of Staphylococcus epidermis ATCC 35984 and Pseudomonas aeruginosa ATCC 27853 were used to inoculate a tryptic soy agar (TSA) plate and were incubated overnight at 37° C. After incubation 3-5 well-isolated colonies with the same morphology were selected from the TSA plate and resuspended in 2 mL 0.9% saline solution with 3-6 glass beads and vortexed. The optical density of the bacterial suspension was measured at 600 nm (OD600) with a spectrophotometer (Evolution™ 201/220 UV-Visible Spectrophotometer, Thermo Fisher Scientific) and diluted to an OD600 of 0.2. The MBIC assay was performed in a 96-microtiter plate. 50 μL of TSB was added into columns 2-11, and 100 μL to column 12 for sterility control. 100 μL of the 8 mM test compound solution (method 1) was added to column 1. A two-fold dilution series of the solution in TSB was achieved by resuspending 50 μL of the 8 mM solution from column 1 in column 2. This step was repeated until column 10. The respective concentration of Tween 80 and DMSO in column 1 is at 2.5%, which is two-fold diluted throughout the plate. 50 μL of the bacterial suspension was added to column 1-11. The microtiter plates were sealed with adhesive polyethylene film for sealing microplates (Diversified Biotech) and incubated for 48 h at 37° C. After incubation the supernatant is carefully removed and the well with the biofilm washed for one time with 100 μL 0.9% saline solution. 100 μL 0.1 M HCl was added and incubated for 1 h at room temperature to fix the biofilm. After incubation the HCl was removed and 100 μL crystal violet (0.1% v/v in water) was added and incubated for 30 min at room temperature. The unbound crystal violet was removed and the wells washed one time with 100 μL demineralized water. 100 μL 30% acetic acid was added and incubated for 1 h at 37° C. and 150 rpm. The solution was resuspended and transferred to a flat-bottom 96-well plate and the absorbance measured at 540 nm with the spectrophotometer. This assay was repeated two times in two independent experiments.

[4] = test system: cows with a SCC of more as 250.000 cells/ml; assay: In vivo mastitis test: somatic cell count (SCC) in milk after a single oral tablet; parameters: species or system cow; conditions: single oral tablet (10 g), 60 days, FIG. 1
Protocol: Experiments were performed to examine the effect of compounds on the cell count or somatic cell count (SCC) in milk.
Somatic cell counts (SCC) is related to the amount of pathogens that are in the quarter visible for the immune system. The cell count of each cow was measured with the milk production registration (MPR). This MPR is done periodically every 30-40 days at all farms. The Somatic Cell Count (SCC) is a main indicator of milk quality. The majority of somatic cells are leukocytes (white blood cells)—which become present in increasing numbers in milk usually as an immune response to a mastitis-causing pathogen—and a small number of epithelial cells, which are milk-producing cells shed from inside of the udder when an infection occurs.
The SCC data was extracted from milk production registrations (MPRs). MPRs are databases showing all details (e.g. SCC) of the produced milk per individual cow. MPRs of the selected farms were available periodically. SCC is quantified as the number of cells per ml of milk. In general terms: an individual cow with a value for SCC of 100,000 or less indicates an ‘uninfected’ cow and there were no significant production losses due to subclinical mastitis. A threshold SCC above 250,000 indicates infection and counts between 100,000 to 250,000 indicate a high risk of infection.
The experiments were performed on a farm with 90 cows. Examination was performed on cell count with the above described tablets during 60 days.
Cows with a SCC of more as 250.000 cells/ml before treatment were selected for administration of a single tablet.

Question: What does the source list for `CSS(C)(=O)=O` [Di-methyl thiosulfonate, methyl methane thiosulfonate]?
Answer: S. epidermidis MBEC mM with log reduction ≥1 [1]: 2 mM; P. aeruginosa MBEC mM with log reduction ≥1 [2]: 2 mM; S. epidermidis MBIC90 [3]: >4 mM; somatic cell count (SCC) of milk [4]: significantly decreased

Question: How did the minimal effective concentration ([1]; read-out: S. epidermidis MBEC mM with log reduction ≥1) turn out when `CCCS[S+]([O-])CCC` (centres unmarked) [Di-n-propyl thiosulfinate, S-propyl propane-1-sulfinothioate] was run?
Answer: 2 mM

Question: What about the minimal effective concentration ([2]; Pseudomonas aeruginosa, ATCC27853, read-out: P. aeruginosa MBEC mM with log reduction ≥1) of the same molecule?
Answer: 4 mM

Question: What about the “S. epidermidis MBIC90” value [3] of the same molecule?
Answer: >4 mM

Question: And the “somatic cell count (SCC) of milk” value [4]?
Answer: significantly decreased
